In publication PMC13410438, “Self‐Assembling Cationic Lipopeptides for the Construction of Functional Vesicular Gene‐Delivery Systems” (Small (Weinheim an Der Bergstrasse, Germany), 2026):
Square brackets hold non-standard residues; d marks the D form. Peptide text beside a SMILES is read from it. * marks the point of attachment. Oleoyl = CCCCCCCC/C=C\CCCCCCCC(=O)*; Dap = NC[C@H](N)C(=O)O

Assays:
iMSCs [1] = test: Cell viability after pGFP transfection (cell number vs untransfected control); assay type: cell-based; details: pGFP complexes, LP1 100 µg/mL, LP2 40 µg/mL
Experimental: In parallel, in situ transfection of iMSCs was evaluated by confocal microscopy (Nikon, Tokyo, Japan) based on GFP expression (Figure 7a). Transfection efficiency was quantified using ImageJ software by calculating the percentage of GFP‐positive cells relative to the total number of cells in four randomly selected fields per condition (Figure 7b). Cell viability was determined by comparing the number of cells in each sample with that of the untransfected control (Figure 7c).

HEK 293T cells = test: Cell viability (CCK8) after lipopeptide/placZ transfection; assay type: cell-based; details: 24 h
Experimental: (§1) Lipopeptide (LP1 or LP2) was dissolved in MeOH in order to create a lipid film with a desired concentration. Afterwards, the organic solvent was removed under nitrogen flow, obtaining the corresponding lipid film. The film was then hydrated with 1 mL of OptiMEM Reduced Serum Medium (1X). Lipopeptide/pDNA complexes were then formed by mixing placZ or pGFP plasmid (742 ng) with the corresponding lipopeptide (LP1 or LP2) solution to obtain various concentrations (2.5–50 µg/mL), thus being able to carry out different analysis. All mixtures were allowed to complex for 30 min at rt before being used in different experiments. Lipofectamine was used as positive control; their corresponding lipoplexes were prepared with the same plasmid concentrations and the recommended reagent volume, according to the manufacturer instructions.
(§2) HEK 293T (75000 cells/well in 48 well‐plates) or iMSCs (10000 cells/well in 96 well‐plates) were allowed to attach for 24 h at 37 °C before the experiments. Then, cells were transfected with lipopeptide (LP1 or LP2)/pDNA (placZ or pGFP) complexes and incubated for 24 h at 37 °C and 5% CO2. Untransfected cells (negative control) or cells transfected with Lipofectamine (positive control) were assessed in parallel. All conditions were evaluated by quadrupled.
(§3) Viability of the cell monolayers was monitored at 24 h using the CCK8 reagent, following the supplier's instructions (Neo Biotech, France). Briefly, cells were washed with 1X PBS (pH 7.4), and then incubated with CCK8 reagent (100 µL; 1:10 dilution in DMEM) for at least 2 h at 37 °C and 5% CO2. The absorbance (Abs) signal at 450 nm was measured in a Sinergy HTX Plate reader. Cell viability was obtained with the following formula: Cellviability%=Abssample450nm/Abscontrol450nm×100

iMSCs [2] = test: as above; assay type: cell-based; details: 24 h
Experimental: as §1, §2, §3

Structure (SMILES) | Z-potential | cytotoxicity / cell viability compared with LPF (iMSCs [1]) | cell viability (HEK 293T cells) | cell viability (iMSCs [2])
CCCCCCCC/C=C\CCCCCCCC(=O)NC[C@H](NC(=O)CCCCCCC/C=C\CCCCCCCC)C(=O)N[C@@H](CCCCN)C(=O)N[C@@H](CCCCN)C(=O)N[C@@H](CCCCN)C(=O)O [LP1, Dioleoyl‐DapKKK] (Oleoyl-[Dap](Oleoyl)KKK-OH) | 25.2 mV | higher cytotoxicity than LPF | above 75% | above 75%
CCCCCCCC/C=C\CCCCCCCC(=O)NCCCC[C@H](NC(=O)CCCCCCC/C=C\CCCCCCCC)C(=O)N[C@@H](CCCCN)C(=O)N[C@@H](CCCCN)C(=O)N[C@@H](CCCCN)C(=O)O [LP2, Dioleoyl‐KKKK] (Oleoyl-K(Oleoyl)KKK-OH) | 25.2 mV | higher than in the LPF group | above 75% | above 75%
